In patent US11415579B2, “Assay for measuring a rate of reaction between a target and a ligand candidate” (Imperial College Innovations Ltd., priority 2016, dated 2022):

Legend:
[1] = Kinetic thiol consumption assay with model thiol glutathione; format: physicochemical; design: Rate constant with glutathione (k(GSH)): unit not given here; conditions: for Rate constant with glutathione (k(GSH)): 500 μM ligand, 5 μM thiol, phosphate buffer pH 8; for Rate constant with Glutathione: Protein: Glutathione, cysteine position NA, in h-1
In short: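 GSH 5 μM, degassed phosphate buffer pH 8, TCEP beads 2% v/v; acrylamide added; RT, 1 h; fluorescence ex/em 380/470 nm; normalized to DMSO/thiol control; k from first-order exponential decay fit.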

[2] = biological target: T1, human cyclin-dependent kinase 2 (Cdk2) (Homo sapiens, UniProt P24941); experiment: Kinetic thiol consumption assay with wild type Cdk2 (C177); format: binding; design: key to Rate enhancement, Cdk2 WT: k(Cdk2) divided by k(model thiol); Rate constant with Cdk2 (k(Cdk2)): unit not given here; conditions: for Rate constant with Cdk2 (k(Cdk2)): 500 μM ligand, 5 μM thiol, phosphate buffer pH 8; for Rate enhancement, Cdk2 WT: no additional mutations; for Rate constant with Cdk2 WT: Protein: Cdk2, cysteine position WT, in h^-1; for k(Cdk2)/k(Cdk2_mut) rate enhancement: model thiol Cdk2[C177A, F80C, K278C]; for k(Cdk2)/k(GSH) rate enhancement: model thiol glutathione
T1 construct: poly-histidine; made in house; host or cells: E. coli
In short: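 His-tagged human Cdk2 (single surface cysteine C177), expressed in E. coli, or a model thiol at 5 μM in degassed phosphate buffer pH 8 was pre-treated with immobilized TCEP beads (2% v/v) before acrylamide addition. Fluorescence (ex/em 380/470 nm) was read after 1 h at room temperature, normalized to DMSO/thiol-only control and plotted versus time.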

Cdk2[C177A, F80C, K278C] = biological target: T2, Cdk2[C177A, F80C, K278C] (Homo sapiens, UniProt P24941, C177A/F80C/K278C); experiment: Kinetic thiol consumption assay with mutant Cdk2 as model thiol; format: binding; design: unit not given here; conditions: 500 μM ligand, 5 μM thiol, phosphate buffer pH 8
T2 construct: poly-histidine; made in house; host or cells: E. coli
In short: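 Model thiol: His-tagged human Cdk2 C177A/F80C/K278C (two engineered surface cysteines), E. coli-expressed, 5 μM in degassed phosphate buffer pH 8 with immobilized TCEP beads (2% v/v). Fluorescence (ex/em 380/470 nm) followed over time at room temperature, normalized to DMSO/thiol control. First-order decay fit gives rate constants.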

Cdk2(C177A, F80C) = biological target: T3, Cdk2(C177A, F80C) (Homo sapiens, UniProt P24941, C177A/F80C); experiment: Kinetic thiol consumption assay with Cdk2 mutant F80C, incl. kobs versus concentration (Kd, k2); format: binding; design: key to Rate enhancement, Cdk2 F80C: Cdk2 rate constant divided by model-thiol rate constant; conditions: additional mutation C177A; for Rate constant with Cdk2 F80C: Protein: Cdk2, cysteine position F80C, in h^-1
T3 construct: poly-histidine; made in house; host or cells: E. coli
In short: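 His-tagged Cdk2(C177A/F80C) from E. coli or model thiol, 5 μM in degassed phosphate buffer pH 8 with TCEP beads, reacted with acrylamide ligands; fluorescence (ex/em 380/470 nm) normalized to DMSO control and fitted to first-order decay for kobs. Kd and k2 obtained from hyperbolic fit of kobs versus ligand concentration.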

Cdk2(H71C) (C177A) = biological target: T4, Cdk2(H71C) (C177A) (Homo sapiens, UniProt P24941, C177A/H71C); experiment: Kinetic thiol consumption assay with Cdk2 mutant H71C; format: binding; design: key to Rate enhancement, Cdk2 H71C: rate constant with Cdk2 ÷ rate constant with model thiol (fold); conditions: additional mutation C177A; for Rate constant with Cdk2 H71C: Protein: Cdk2, cysteine position H71C, in h^-1
T4 construct: poly-histidine; made in house; host or cells: E. coli
In short: (§1)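 5 μM thiol, degassed phosphate pH 8, 2% v/v immobilized TCEP beads; 1 h RT; fluorescence ex 380/em 470 nm; normalized vs DMSO/thiol-only; first-order exponential decay fit → rate constant; Cdk2 k / model-thiol k = rate enhancement per acrylamide.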

Cdk2(S276C) (C177A) = biological target: T5, Cdk2(S276C) (C177A) (Homo sapiens, UniProt P24941, C177A/S276C); experiment: Kinetic thiol consumption assay with Cdk2 mutant S276C; format: binding; design: key to Rate enhancement, Cdk2 S276C: rate constant with Cdk2 ÷ rate constant with model thiol (fold); conditions: additional mutation C177A; for Rate constant with Cdk2 S276C: Protein: Cdk2, cysteine position S276C, in h^-1
T5 construct: poly-histidine; made in house; host or cells: E. coli
In short: as §1

Cdk2(N272C) (C177A) = biological target: T6, Cdk2(N272C) (C177A) (Homo sapiens, UniProt P24941, C177A/N272C); experiment: Kinetic thiol consumption assay with Cdk2 mutant N272C; format: binding; design: key to Rate enhancement, Cdk2 N272: rate constant with Cdk2 ÷ rate constant with model thiol (fold); conditions: for Rate enhancement, Cdk2 N272: Cdk2 N272, additional mutation C177A; for Rate constant with Cdk2 N272C: Protein: Cdk2, cysteine position N272C, additional mutation C177A, in h^-1
T6 construct: poly-histidine; made in house; host or cells: E. coli
In short: as §1

Cdk2(T182C) (C177A) = biological target: T7, Cdk2(T182C) (C177A) (Homo sapiens, UniProt P24941, C177A/T182C); experiment: Kinetic thiol consumption assay with Cdk2 mutant T182C; format: binding; design: key to Rate enhancement, Cdk2 T182C: rate constant with Cdk2 ÷ rate constant with model thiol (fold); conditions: additional mutation C177A; for Rate constant with Cdk2 T182C: Protein: Cdk2, cysteine position T182C, in h^-1
T7 construct: poly-histidine; made in house; host or cells: E. coli
In short: as §1

Cdk2(R122C) (C177A) = biological target: T8, Cdk2(R122C) (C177A) (Homo sapiens, UniProt P24941, C177A/R122C); experiment: Kinetic thiol consumption assay with Cdk2 mutant R122C; format: binding; design: key to Rate enhancement, Cdk2 R122C: rate constant with Cdk2 ÷ rate constant with model thiol (fold); conditions: additional mutation C177A; for Rate constant with Cdk2 R122C: Protein: Cdk2, cysteine position R122C, in h-1
T8 construct: poly-histidine; made in house; host or cells: E. coli
In short: as §1

Cdk2(S181C) (C177A) = biological target: T9, Cdk2(S181C) (C177A) (Homo sapiens, UniProt P24941, C177A/S181C); experiment: Kinetic thiol consumption assay with Cdk2 mutant S181C; format: binding; design: key to Rate enhancement, Cdk2 S181C: rate constant with Cdk2 ÷ rate constant with model thiol (fold); conditions: additional mutation C177A; for Rate constant with Cdk2 S181C: Protein: Cdk2, cysteine position S181C, in h^-1
T9 construct: poly-histidine; made in house; host or cells: E. coli
In short: as §1

| SMILES | Rate constant with glutathione (k(GSH)) [1] | Rate constant with Glutathione [1] | Rate constant with Cdk2 (k(Cdk2)) [2] | Rate enhancement, Cdk2 WT [2] | Rate constant with Cdk2 WT [2] | k(Cdk2)/k(Cdk2_mut) rate enhancement [2] | k(Cdk2)/k(GSH) rate enhancement [2] | Rate constant with Cdk2[C177A, F80C, K278C] (k(Cdk2_mut)) (Cdk2[C177A, F80C, K278C]) | Rate enhancement, Cdk2 F80C (Cdk2(C177A, F80C)) | Rate constant with Cdk2 F80C (Cdk2(C177A, F80C)) | Rate enhancement, Cdk2 H71C (Cdk2(H71C) (C177A)) | Rate constant with Cdk2 H71C (Cdk2(H71C) (C177A)) | Rate enhancement, Cdk2 S276C (Cdk2(S276C) (C177A)) | Rate enhancement, Cdk2 N272 (Cdk2(N272C) (C177A)) | Rate constant with Cdk2 N272C (Cdk2(N272C) (C177A)) | Rate enhancement, Cdk2 T182C (Cdk2(T182C) (C177A)) | Rate constant with Cdk2 T182C (Cdk2(T182C) (C177A)) | Rate enhancement, Cdk2 R122C (Cdk2(R122C) (C177A)) | Rate enhancement, Cdk2 S181C (Cdk2(S181C) (C177A)) | Rate constant with Cdk2 S181C (Cdk2(S181C) (C177A)) | further results |
| --- | --- | --- | --- | --- | --- | --- | --- | --- | --- | --- | --- | --- | --- | --- | --- | --- | --- | --- | --- | --- | --- |
| C=CC(=O)N1CCC2(CC1)NC(=O)N(C)C2=O [CA-046] | 0.00955 | 0.01631 | 0.00343 | 0.2104 | 0.003432 | 1.377 | 0.3593 | 0.00249 | 0.1163 | 0.001897 | 0.07112 | 0.00116 | 0.7069 | 0.09295 | 0.001516 | 0.595 | 0.009705 | 0.2397 | 0.1987 | 0.00324 | Rate constant with Cdk2 S276C (Cdk2(S276C) (C177A)): 0.01153; Rate constant with Cdk2 R122C (Cdk2(R122C) (C177A)): 0.00391 |
| C=CC(=O)NCc1ccc(-c2ccccc2)cc1 [EL-1050] | 0.00204 | 0.002862 | 0.00166 | 0.579 | 0.001657 | 1.317 | 0.813 | 0.00126 | 0 |  | 0 |  | 0 | 0.1784 | 0.0005105 | 0.5328 | 0.001525 | 0 | 0.5143 | 0.001472 |  |
| C=CC(=O)N1CCCN2C(=O)CCC12c1ccc(OC)cc1 (centres unmarked) [EL-1168] | 0.01343 | 0.01334 | 0.00974 | 0.7298 | 0.009736 | 5.551 | 0.7249 | 0.00175 | 0.3123 | 0.004166 | 0.8583 | 0.01145 | 0.6022 | 0.6555 | 0.008745 | 2.927 | 0.03904 | 0.3022 | 1.741 | 0.02323 | Rate constant with Cdk2 S276C (Cdk2(S276C) (C177A)): 0.008034; Rate constant with Cdk2 R122C (Cdk2(R122C) (C177A)): 0.004032 |
| C=CC(=O)NCc1ccc(C(=O)OC)cc1 [BN-65] | 0.00292 | 0.002366 | 0.00121 | 0.7866 | 0.001861 | 0.3031 | 0.4134 | 0.00398 | 2.644 | 0.006255 | 0.538 | 0.001273 | 1.179 | 0.9112 | 0.002156 | 0.8711 | 0.002061 | 0 | 0.5182 | 0.001226 | Rate constant with Cdk2 S276C (Cdk2(S276C) (C177A)): 0.002789 |
| C=CC(=O)NCCc1c[nH]c2ccccc12 [EL-1174] | 0.00253 | 0.004201 | 0.0009 | 0.3449 | 0.001449 | 0.131 | 0.3555 | 0.00688 | 3.249 | 0.01365 | 0.8572 | 0.003601 | 0.716 | 0 |  | 1.377 | 0.005783 | 0.532 | 0.5058 | 0.002125 | Rate constant with Cdk2 S276C (Cdk2(S276C) (C177A)): 0.003008; Rate constant with Cdk2 R122C (Cdk2(R122C) (C177A)): 0.002235 |
| C=CC(=O)N1CCCC(C(=O)OCC)C1 (centres unmarked) [EL-1187] | 0.00634 | 0.01328 | 0.00596 | 0.6935 | 0.00921 | 1.774 | 0.9394 | 0.00336 | 0.4424 | 0.005875 | 0.4465 | 0.005929 | 0.4007 | 0.5301 | 0.00704 | 4.397 | 0.05839 | 0.1436 | 0.2887 | 0.003834 | Rate constant with Cdk2 S276C (Cdk2(S276C) (C177A)): 0.005321; Rate constant with Cdk2 R122C (Cdk2(R122C) (C177A)): 0.001907 |
| C=CC(=O)N1CCC2(CCCN(Cc3ccccc3)C2)C1 (centres unmarked) [CA-141] | 0.01384 | 0.01802 | 0.00693 | 0.3847 | 0.006933 | 2.693 | 0.5009 | 0.00257 | 0.09517 | 0.001715 | 0 |  | 0 | 0.2507 | 0.004517 | 0.5125 | 0.009235 | 0.2386 | 0.1935 | 0.003487 | Rate constant with Cdk2 R122C (Cdk2(R122C) (C177A)): 0.0043 |
